pEC50: −log10 of the molar value.
Columns and labels:
[1] = biological target: T1, cS1P2 receptor (Canis lupus familiaris, UniProt A0A8I3P3I1); test: S1P ligand binding assay with transfected CHO cells expressing the cS1P2 receptor; set-up: species or system Canis (dog); conditions: 33P-S1P binding to CHO cells expressing cS1P2, 60 minutes at room temperature; read-out: EC50 (S1P ligand binding, FIG. 3)
Description: The transfected CHO cells from Example 2 expressing the cS1P2 receptor were evaluated for the ability of the cS1P2 receptor expressed in the cells to properly integrate into the cell membrane and bind SIP.
Transfected CHO cells from Example 2 were harvested with enzyme-free dissociation solution (Specialty Media, Lavallette, N.J.). The cells were washed once in cold PBS and suspended in SIP binding buffer (50 mM HEPES-Na, pH 7.5, 5 mM MgCl2, 1 mM CaCl2, 0.5% FAF-BSA). ^33P-S1P was synthesized enzymatically from γ^33P-ATP and sphingosine using a crude extract with sphingosine kinase activity in a reaction mix containing 50 mM KH2PO4, 1 mM mercaptoethanol, 1 mM Na3VO4, 25 mM KF, 2 mM semicarbazide, 1 mM Na2EDTA, 5 mM MgCl2, […], 0.1% TritonX-114, and 1 mCi γ^33P-ATP (NEN; specific activity 2000 Ci/mnol). Reaction products were extracted with butanol and ^33P-S1p was purified by HPLC.
^33P-S1P (0.1 uCi/ml) was sonicated with 0.2 nM S1P dissolved in binding buffer; 100 μL of the mixture was added to 100 μL cells (1×10^5). Binding was performed for 60 minutes at room temperature. […] After drying the filter plates for 30 minutes, 50 μL of MICROSCINT 20 was added to each well and binding was measured with a Packard Top Count. Non-specific binding was defined as the amount of radioactivity remaining in the presence of 200 nM cold S1P.

[2] = biological target: T1, cS1P2 receptor; test: 35S-GTPγS binding assay with membranes from transfected CHO cells; assay type: biochemical, Canis (dog); conditions: membranes of cS1P2-transfected CHO cells, 5 μM GDP, 100 pM 35S-GTPγS, one hour at room temperature; read-out: EC50 (35S-GTPγS binding, FIG. 4)
Description: Functional coupling of the cS1P2 receptor to G proteins was measured in a ^35S-GTPγS binding assay. Membranes were prepared from transfected cells by homogenization in ice cold 20 mM HEPES pH 7.4, 10 mM EDTA using a Kinematica polytron (setting 5, for 10 seconds). Homogenates were centrifuged at 48,000×g for 15 minutes at 4° C. and the pellet suspended in 20 mM HEPES pH 7.4, 0.11 mM EDTA. Following a second centrifugation, the final pellet was suspended in 20 mM HEPES pH 7.4, 100 mM NaCl, 10 mM MgCl2. Membranes were incubated in 200 μL with 5 μM GDP, various concentrations of SIP (sonicated in 1% BSA), and 100 pM ^35S-GTPγS (NEN; specific activity 1250 Ci/mmol) in 96 well microtiter dishes. Binding was performed for one hour at room temperature, and terminated by harvesting the membranes onto GF/B filter plates with a Packard Filtermate Universal Harvester. After drying the filter plates for 30 min, 40 μL of MICROSCINT 20 was added to each well and binding was measured on a Packard Top Count scintillation counter.

pEC50 [1]: ~8.24 | pEC50 [2]: ~9.10
Structure (SMILES): CCCCCCCCCCCCC/C=C/[C@@H](O)[C@@H](N)COP(=O)(O)O [S1P, sphingosine-1-phosphate]

Reference: patent publication US20090202987A1, “Canis sphingosine 1-phosphate receptor isoform 2” (priority 2004, published 2009)
